Test results taken from patent US12195427B2, “MASP-2 inhibitors and methods of use” (priority 2018, dated 2025).

Target: MASP-2 CCP2-SP (Homo sapiens (Human), UniProt O00187)
Test: MASP-2 co-crystallization, X-ray crystallography and structure analysis (H-bonds, van der Waals contacts);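 on Ligand-pharmacophore element distance, pharmacophore element C2: distance from averaged pharmacophore element to bound ligand; missing value means element absent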;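 on Ligand-pharmacophore element distance, pharmacophore element C3: distance from averaged pharmacophore element to bound ligand; missing value means element absent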;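 on Ligand-pharmacophore element distance, pharmacophore element C4: distance from averaged pharmacophore element to bound ligand; missing value means element absent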;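 on Ligand-pharmacophore element distance, pharmacophore element C5: distance from averaged pharmacophore element to bound ligand; missing value means element absent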
Parameters: van der Waals contact distance, MASP-2 HIS 483 atom CD2 / van der Waals contact distance, MASP-2 HIS 483 atom NE2 / van der Waals contact distance, SER 654 C to compound atom / van der Waals contact distance, SER 654 O to compound atom / van der Waals contact distance, TRP 655 C to compound atom / van der Waals contact distance, MASP-2 GLY 528 atom CA / van der Waals contact distance TRP 655 atom CZ3 / van der Waals contact distance TRP 655 atom N / van der Waals contact distance TRP 655 atom CE3 / van der Waals contact distance GLY 656 atom C / van der Waals contact distance GLY 656 atom CA / van der Waals contact distance GLY 656 atom O / van der Waals contact distance, MASP-2 TYR 607 atom CD1 / van der Waals contact distance, MASP-2 PRO 606 atom O / d(C3,CA1) / d(CA1,N1)2 / d(H4,O1) / d(H4,O2) / d(O1,O2) / d(CA1,O2) / d(CA6,O1) / d(CA6,O2) / d(CA1,C5) / d(O2,H3) / d(N2,C2) / d(CA5,N2) / d(N2,C4) / d(N2,C6) / d(N2,CA3) / d(N2,O3) / d(O4,H2): unit not given beside the values
Settings: for Ligand-pharmacophore element distance, pharmacophore element C2 / Ligand-pharmacophore element distance, pharmacophore element C3 / Ligand-pharmacophore element distance, pharmacophore element C4 / Ligand-pharmacophore element distance, pharmacophore element C5 / Ligand-pharmacophore element distance, pharmacophore element C6 / Ligand-pharmacophore element distance, pharmacophore element C7 / Ligand-pharmacophore element distance, pharmacophore element CA1 / Ligand-pharmacophore element distance, pharmacophore element CA2 / Ligand-pharmacophore element distance, pharmacophore element CA3 / Ligand-pharmacophore element distance, pharmacophore element CA4 / Ligand-pharmacophore element distance, pharmacophore element CA5 / Ligand-pharmacophore element distance, pharmacophore element CA6: Table A4-1; for d(CA1,O1) / d(CA1,O2) / d(H4,O1) / d(H4,O2) / d(O1,O2) / d(CA1,N1): Table A5-1 pharmacophore: distance between elements, S2/S1 region; for d(CA5,N2) / d(O2,H3) / d(O2,N2) / d(N2,C2): Table A5-2 pharmacophore distance, S3/S4 region; for a(CA1, O1, O2) / a(O1, O2, H4) / A(N1, CA1, O1) a): Table A6-1 pharmacophore angle; for a(O1, O2, H3) / a(O1, O2, N2) / a(O2, N2, C2): Table A6-2 pharmacophore angle; for Pharmacophore torsion angle a(H4, O1, O2, H3) / Pharmacophore torsion angle a(H4, O1, O2, N2) / Pharmacophore torsion angle a(O1, H4, O2, CA1) / Pharmacophore torsion angle a(N1, CA1, O2, H4) / Pharmacophore torsion angle a(O1, O2, N2, C2): Table A7-1; for Pharmacophore torsion angle a(H4, O1, O2, H3) / Pharmacophore torsion angle a(H4, O1, O2, N2) / Pharmacophore torsion angle a(O1, H4, O2, CA1) / Pharmacophore torsion angle a(O1, O2, N2, CA5) / Pharmacophore torsion angle a(N1, CA1, O2, H4) / Pharmacophore torsion angle a(O1, O2, N2, C2): between pharmacophore elements of the bound compound; for Pharmacophore torsion angle a(O1, O2, N2, CA5): Table A7-2; for Pharmacophore protein distance to MET_658 (first MET_658 column) / Pharmacophore protein distance to MET_658 (second MET_658 column) / Pharmacophore protein distance to GLY_528 / Pharmacophore protein distance to PHE_529 / Pharmacophore protein distance to PRO_608 / Pharmacophore protein distance to SER_611 / Pharmacophore protein distance to TRP_655: Table A8-6, nearest protein atom in cell to the left; for Pharmacophore protein distance to MET_658 (first MET_658 column): 6th residue column; for Pharmacophore protein distance to MET_658 (second MET_658 column): 9th residue column; for Pharmacophore protein distance to TRP_655: pharmacophore elements C6, CA3, O3, H1; for A(N1, CA1, O1) a): all compounds with protonatable center N1 except Methyl-amino-pyridine
Procedure, shortened: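 Soaked crystals of recombinant CCP2-SP (E. coli) yield the structures, phased by molecular replacement on 1Q3X pieces. Hydrophobic or nonbonded contacts can also cover atom pairs that are potential hydrogen bonds.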

Chain of MASP-2 CCP2-SP (O00187 445-686): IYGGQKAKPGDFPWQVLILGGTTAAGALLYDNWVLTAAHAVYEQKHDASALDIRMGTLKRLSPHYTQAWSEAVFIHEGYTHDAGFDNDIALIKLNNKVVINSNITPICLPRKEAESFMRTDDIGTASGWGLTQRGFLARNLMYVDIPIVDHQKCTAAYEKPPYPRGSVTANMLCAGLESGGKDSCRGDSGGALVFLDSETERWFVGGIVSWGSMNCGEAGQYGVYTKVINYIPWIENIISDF
Chain of MASP-2 CCP2-SP (O00187 364-432 partner): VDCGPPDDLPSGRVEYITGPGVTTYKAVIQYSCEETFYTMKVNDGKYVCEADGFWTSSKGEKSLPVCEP

C[C@H](NC(=O)[C@H]1C[C@@H](c2ccccc2)CN1)C(=O)NCc1ccc2c(N)nccc2c1.Cl.Cl [1089_B]
Ligand-pharmacophore element distance, pharmacophore element C2: 0 | Ligand-pharmacophore element distance, pharmacophore element C3: 0 | Ligand-pharmacophore element distance, pharmacophore element C4: 0 | Ligand-pharmacophore element distance, pharmacophore element C5: 0 | Ligand-pharmacophore element distance, pharmacophore element C6: 0 | Ligand-pharmacophore element distance, pharmacophore element C7: 0 | Ligand-pharmacophore element distance, pharmacophore element CA1: 0.99 | Ligand-pharmacophore element distance, pharmacophore element CA2: 0 | Ligand-pharmacophore element distance, pharmacophore element CA3: 0 | Ligand-pharmacophore element distance, pharmacophore element CA4: 0 | Ligand-pharmacophore element distance, pharmacophore element CA5: 1.16 | Ligand-pharmacophore element distance, pharmacophore element CA6: 0 | d(CA1,O1): 5.68 | d(CA1,O2): 5.17 | d(H4,O1): 3.14 | d(H4,O2): 3.69 | d(O1,O2): 3.33 | d(CA5,N2): 5.10 | d(O2,H3): 5.91 | d(O2,N2): 2.70 | a(CA1, O1, O2): 99.20 | a(O1, O2, H4): 122.31 | a(O1, O2, H3): 152.83 | a(O1, O2, N2): 141.07 | Pharmacophore torsion angle a(H4, O1, O2, H3): 89.27 | Pharmacophore torsion angle a(H4, O1, O2, N2): −178.39 | Pharmacophore torsion angle a(O1, H4, O2, CA1): −94.63 | Pharmacophore torsion angle a(O1, O2, N2, CA5): 133.38 | Pharmacophore protein distance to MET_658 (first MET_658 column): 2.61 | Pharmacophore protein distance to MET_658 (second MET_658 column): 3.31 | Pharmacophore protein distance to GLY_528: 3.59 | Pharmacophore protein distance to PHE_529: 2.81 | Pharmacophore protein distance to PRO_608: 3.90 | Pharmacophore protein distance to SER_611: 2.79 | Pharmacophore protein distance to TRP_655: 3.57

C[C@H](NC(=O)[C@H]1Cc2c([nH]c3ccccc23)CN1)C(=O)NCc1ccc(C(=N)N)cc1.Cl.Cl [1097_1]
Ligand-pharmacophore element distance, pharmacophore element C2: 0.69 | Ligand-pharmacophore element distance, pharmacophore element C3: 0 | Ligand-pharmacophore element distance, pharmacophore element C4: 0 | Ligand-pharmacophore element distance, pharmacophore element C5: 0 | Ligand-pharmacophore element distance, pharmacophore element C6: 0 | Ligand-pharmacophore element distance, pharmacophore element C7: 0 | Ligand-pharmacophore element distance, pharmacophore element CA1: 0.29 | Ligand-pharmacophore element distance, pharmacophore element CA2: 0 | Ligand-pharmacophore element distance, pharmacophore element CA3: 0 | Ligand-pharmacophore element distance, pharmacophore element CA4: 0 | Ligand-pharmacophore element distance, pharmacophore element CA5: 0.98 | Ligand-pharmacophore element distance, pharmacophore element CA6: 0 | d(CA1,N1): 3.53 | d(CA1,O1): 4.28 | d(CA1,O2): 4.28 | d(H4,O1): 3.88 | d(H4,O2): 3.35 | d(O1,O2): 3.32 | d(CA5,N2): 4.50 | d(N2,C2): 1.42 | d(O2,H3): 4.58 | d(O2,N2): 2.81 | a(CA1, O1, O2): 112.80 | a(O1, O2, H4): 125.81 | A(N1, CA1, O1) a): 162.99 | a(O1, O2, H3): 152.91 | a(O1, O2, N2): 134.93 | a(O2, N2, C2): 125.76 | Pharmacophore torsion angle a(H4, O1, O2, H3): 86.65 | Pharmacophore torsion angle a(H4, O1, O2, N2): 121.05 | Pharmacophore torsion angle a(N1, CA1, O2, H4): −97.71 | Pharmacophore torsion angle a(O1, H4, O2, CA1): −66.34 | Pharmacophore torsion angle a(O1, O2, N2, C2): 136.92 | Pharmacophore torsion angle a(O1, O2, N2, CA5): 148.15 | Pharmacophore protein distance to MET_658 (first MET_658 column): 2.40 | Pharmacophore protein distance to MET_658 (second MET_658 column): 3.49 | Pharmacophore protein distance to GLY_528: 3.46 | Pharmacophore protein distance to PHE_529: 2.89 | Pharmacophore protein distance to PRO_608: 3.89 | Pharmacophore protein distance to SER_611: 3.04 | Pharmacophore protein distance to TRP_655: 3.24

C[C@H](NC(=O)[C@H]1Cc2c([nH]c3ccccc23)CN1)C(=O)NCc1ccc(C(=N)N)cc1.Cl.Cl [1097_2]
Ligand-pharmacophore element distance, pharmacophore element C2: 0.72 | Ligand-pharmacophore element distance, pharmacophore element C3: 0 | Ligand-pharmacophore element distance, pharmacophore element C4: 0 | Ligand-pharmacophore element distance, pharmacophore element C5: 0 | Ligand-pharmacophore element distance, pharmacophore element C6: 0 | Ligand-pharmacophore element distance, pharmacophore element C7: 0 | Ligand-pharmacophore element distance, pharmacophore element CA1: 0.32 | Ligand-pharmacophore element distance, pharmacophore element CA2: 0 | Ligand-pharmacophore element distance, pharmacophore element CA3: 0 | Ligand-pharmacophore element distance, pharmacophore element CA4: 0 | Ligand-pharmacophore element distance, pharmacophore element CA5: 1.1 | Ligand-pharmacophore element distance, pharmacophore element CA6: 0 | d(CA1,N1): 3.52 | d(CA1,O1): 4.35 | d(CA1,O2): 4.09 | d(H4,O1): 4.74 | d(H4,O2): 4.28 | d(O1,O2): 3.33 | d(CA5,N2): 4.50 | d(N2,C2): 1.42 | d(O2,H3): 4.29 | d(O2,N2): 2.81 | a(CA1, O1, O2): 109.11 | a(O1, O2, H4): 137.06 | A(N1, CA1, O1) a): 163.92 | a(O1, O2, H3): 153.30 | a(O1, O2, N2): 137.12 | a(O2, N2, C2): 128.45 | Pharmacophore torsion angle a(H4, O1, O2, H3): 91.00 | Pharmacophore torsion angle a(H4, O1, O2, N2): 129.42 | Pharmacophore torsion angle a(N1, CA1, O2, H4): −142.69 | Pharmacophore torsion angle a(O1, H4, O2, CA1): −71.28 | Pharmacophore torsion angle a(O1, O2, N2, C2): 125.27 | Pharmacophore torsion angle a(O1, O2, N2, CA5): 137.08 | Pharmacophore protein distance to MET_658 (first MET_658 column): 2.55 | Pharmacophore protein distance to MET_658 (second MET_658 column): 3.13 | Pharmacophore protein distance to GLY_528: 3.52 | Pharmacophore protein distance to PHE_529: 3.02 | Pharmacophore protein distance to PRO_608: 3.56 | Pharmacophore protein distance to SER_611: 3.29 | Pharmacophore protein distance to TRP_655: 3.09
